Read-outs that look alike come from different tables or passages of the source.

Series [1] in a line: Gas dissolved in teat dip solution under pressure. It counts as physicochemical. The note with it: standard room temperature and 100 psi pressure.
Description: The pressure vessel was constructed from a 0.1 m outside diameter piece of stainless steel tubing. The ends of the tube were capped with tri clover fittings to allow ease of access. The tri-clover caps were modified by adding two entry points on the proximal cap. One entry point on the proximal cap is to allow propellant/diffused gas to be introduced and the other is used to bleed off atmospheric air, when the tank was initially filled with propellant/diffused gas and to relieve pressure before refilling. On the distal cap of the tank two openings were added, each with tubing securely attached and each tube going to a manual shut off valve with a spray nozzle attached. A propellant/diffusion gas source with regulator was attached to the pressure vessel through the entry point on the proximal cap. The pressure vessel is filled about half full with teat dip solution, closed and the tank is pressurized with approximately 100 pounds per square inch (psi) of propellant/diffusion gas, except for the 50% carbon dioxide and 50% nitrous oxide propellant/diffusion gas which is set at 150 psi. The distance and angle from nozzle to teat is 0.15 m and 45 degrees from the horizontal (which were set to mimic a robotic tool used for some embodiments). […]
The conditions of series [2]: cited from earlier work.

For `O=C=O` [CO2, Carbon dioxide], in series [1], the “volumes of gas dissolved per volume of dip solution” value is recorded as “approximately 4.5 volumes”. Also, the vapor pressure entry in series [2] (at 185° K.) is given as “approximately 0.45 bar”; in series [2] (at 290° K.) it was “approximately 50 bar”.

With `[N-]=[N+]=O` [Example N2O, nitrous oxide], the “volumes of gas dissolved in one volume of the dip solution” value in series [1] was “approximately four”. The vapor pressure result is “approximately 1 bar” in series [2] (at 185° K.) and “approximately 50 bar” in series [2] (at 290° K.).

The record behind these values is patent publication US20100150845A1, “SYSTEM AND METHOD FOR THE DELIVERY OF A SANITIZING FOAM” (GREEN SOURCE AUTOMATED, LLC, priority 2008, published 2010).
